# According to patent publication US6875761B2 (Eisai Co., Ltd., priority 1997, dated 2005):
# Where a name gives a salt, the structure may show the parent alone.
row,SMILES,melting point
1,"CCN1CCN(c2nc(-c3cc(OC)cc(OC)c3)cc3ccccc23)CC1 (as salt: hydrochloride) [Example 15, 3-(3,5-dimethoxyphenyl)-1-(4-ethylpiperazin-1-yl)isoquinoline Dihydrochloride]",121 to 123 °C
2,"CCN1CCN(c2nc(-c3ccc(OCCOC)cc3)cc3ccccc23)CC1 (as salt: hydrochloride) [Example 42, 1-(4-ethylpiperazin-1-yl)-3-[4-(2-methoxyethoxy)phenyl]isoquinoline dihydrochloride]",184.5 to 185 °C (dec.)
3,"CCN1CCN(c2nc(-c3ccc(OCCOC)nc3)cc3ccccc23)CC1 (as salt: hydrochloride) [Example 126, 1-(1-Ethylpiperazin-4-yl)-3-[2-(2-Methoxyethoxy)Pyridin-5-yl]Isoquinoline]",115 to 120 °C
4,CCN1CCN(c2nc(C3CCCc4c(OC)cccc43)cc3ccccc23)CC1 (stereo not shown) (as salt: oxalate),133 to 136 °C
5,CCN1CCN(c2nc(C(C)(O)c3ccc(OC)cc3)cc3ccccc23)CC1 (stereo not shown) (as salt: oxalate),179 to 181 °C
6,"CCN1CCN(c2nc(-c3ccc(OCCO)nc3)cc3ccccc23)CC1 (as salt: hydrochloride) [Example 125, 1-(1-Ethylpiperazin-4-yl)-3-[2-(2-Hydroxyethoxy)Pyridin-5-yl]Isoquinoline]",137 to 142 °C
7,"CCN1CCN(c2nc(-c3ccc(S(C)(=O)=O)nc3)cc3ccccc23)CC1 (as salt: hydrochloride) [Example 129, 3-[(2-Methylsulfonylpyridin)-5-yl]-1-(4-Ethylpiperazin-1-yl)Isoquinoline Hydrochloride]",248 to 250 °C
8,"CCN1CCN(c2nc(-c3ccc(N)cc3)cc3ccccc23)CC1 (as salt: hydrochloride) [Example 65, 3-(4-Aminophenyl)-1-(4-Ethylpiperazin-1-Yl)Isoquinoline Hydrochloride]",267 to 268 °C
9,"CCCS(=O)(=O)c1ccc(-c2cc3ccccc3c(N3CCN(CC)CC3)n2)cc1 (as salt: hydrochloride) [Example 349, 1-(4-ethylpiperazin-1-yl)-3-[4-propylsulfonyl)phenyl]isoquinoline dihydrochloride]",240.5 to 242 °C (dec.)
10,"CCN1CCN(c2nc(-c3ccc(OCCCC(C)(C)O)cc3)cc3sccc23)CC1 (as salt: hydrochloride) [Example 292, 6-[4-(4-methyl-4-hydroxypentyloxy)phenyl]-4-(4-ethylpiperazin-1-yl)thieno[3,2-c]pyridine]",116 to 118 °C
11,"CCN1CCN(c2nc(-c3ccc(NC(C)=O)cc3)cc3ccccc23)CC1 (as salt: hydrochloride) [Example 68, 3-(4-Acetamidephenyl)-1-(4-Ethylpiperazin-1-Yl)Isoquinoline Hydrochloride]",180 to 182 °C
12,"CCN1CCN(c2nc(-c3ccc(C(N)=O)cc3)cc3ccccc23)CC1 (as salt: hydrochloride) [Example 408, 1-(4-ethylpiperazin-1-yl)-3-(4-carbamoylphenyl)isoquinoline]",197 to 199 °C
13,CCN1CCN(c2nc(-c3ccc(C(=O)NC)cc3)cc3ccsc23)CC1 (as salt: hydrochloride),150.5 to 152 °C
14,"CCN1CCN(c2nc(C#Cc3ncccc3OCCO)cc3ccccc23)CC1 (as salt: hydrochloride) [Example 188, 1-(1-Ethylpiperazin-4-Yl)-3-[3-(2-Hydroxyethoxy)-2-Pyridyl]Ethynylisoquinoline]",153 to 159 °C
15,"CCN1CCN(c2nc(-c3ccc(CCC(C)O)cc3)cc3ccccc23)CC1 (stereo not shown) (as salt: oxalate) [Example 22, 1-(4-ethylpiperazin-1-yl)-3-[4-(3-hydroxybutyl)phenyl]isoquinoline oxalate]",193 to 194 °C
16,CCCN(C)C(=O)c1ccc(-c2cc3ccccc3c(N3CCN(CC)CC3)n2)cc1 (as salt: oxalate) [Example 381],131 to 132 °C
17,"CCN1CCN(c2nc(-c3ccc(C4=CCOCC4)cc3)cc3ccccc23)CC1 (as salt: hydrochloride) [Example 84, 3-[4-(5,6-Dihydro-2H-pyran-4-yl)phenyl]-1-(4-ethylpiperazin-1-yl)isoquinoline Hydrochloride]",170 to 172 °C
18,"CCN1CCN(c2nc(C(C)c3ccc(OC)cc3)cc3ccccc23)CC1 (stereo not drawn) (as salt: oxalate) [Example 102, 3-[α-Methyl-(4-methoxybenzyl)]-1-(4-ethylpiperazin-1-yl)isoquinoline Oxalate]",86 to 88 °C
19,CCN1CCN(c2nc(-c3csc(C4=CCOCC4)c3)cc3ccccc23)CC1 (as salt: hydrochloride),190 to 193 °C
20,"CCN1CCN(c2nc(-c3ccc(N4C[C@@H](C)O[C@@H](C)C4)nc3)cc3ccccc23)CC1 (as salt: hydrochloride) [Example 149, 3-[2-(2,6-dimethylmorpholin-4-yl)pyridin-5-yl]-1-(4-ethylpiperazin-1-yl)isoquinoline trihydrochloride]",180 °C
21,"CCN1CCN(c2nc(/C=C/c3ccc(S(C)(=O)=O)cc3)cc3ccccc23)CC1 (as salt: hydrochloride) [Example 201, 3-[(E)-2-(4-Methylsulfonylphenyl)Ethenyl]-1-(4-Ethylpiperazin-1-Yl)Isoquinoline Hydrochloride]",170 to 174 °C

# Results, then the compound that gave them:
row,melting point,SMILES
1,216.5 to 218 °C (dec.),"CCN1CCN(c2nc(-c3ccc(OCC(O)COC)cc3)cc3ccccc23)CC1 (stereo not shown) (as salt: hydrochloride) [Example 343, 1-(4-ethylpiperazin-1-yl)-3-[4-(2-hydroxy-3-methoxypropoxy)phenyl]isoquinoline dihydrochloride]"
2,113 to 115 °C,"CCN1CCN(c2nc(-c3ccc(OC(F)(F)F)cc3)cc3ccccc23)CC1 (as salt: hydrochloride) [Example 339, 1-(4-ethylpiperazin-1-yl)-3-(4-trifluoromethoxyphenyl)isoquinoline dihydrochloride]"
3,128 to 129 °C,"CCN1CCN(c2nc(-c3ccc(O[C@@H](C)CO)cc3)cc3ccccc23)CC1 (as salt: hydrochloride) [Example 404, 1-(4-ethylpiperazin-1-yl)-3-[4-(2-hydroxy-1-methylethoxy)phenyl]isoquinoline Dihydrochloride]"
4,108 to 110 °C,"CCN1CCN(c2nc(-c3ccc(CC(C)CO)cc3)cc3ccsc23)CC1 (stereo not shown) (as salt: hydrochloride) [Example 441, 7-(4-ethylpiperazin-1-yl)-5-[4-(3-hydroxy-2-methylpropyl)phenyl]thieno[2,3-c]pyridine dihydrochloride]"
5,163 to 166 °C (dec.),"CCN1CCN(c2nc(-c3ccc(C4COCCO4)cc3)cc3ccccc23)CC1 (stereo not shown) (as salt: hydrochloride) [Example 395, 1-(4-Ethylpiperazin-1-yl)-3-[4-(1,4-Dioxan-2-yl)Phenyl]Isoquinoline Dihydrochloride]"
6,160 to 160.5 °C,"CCNC(=O)c1ccc(-c2cc3ccccc3c(N3CCN(CC)CC3)n2)cc1 (as salt: hydrochloride) [Example 364, 1-(4-ethylpiperazin-1-yl)-3-[4-(N-ethylcarbamoyl)phenyl]isoquinoline dihydrochloride]"
7,126 to 130 °C,"CCN1CCN(c2nc(-c3cccc(OCCO)c3)cc3sccc23)CC1 (as salt: hydrochloride) [Example 284, 4-(1-ethylpiperazin-4-yl)-6-[3-(2-hydroxyethoxy)phenyl]thieno-[3,2-c]pyridine dihydrochloride]"
8,157 to 158 °C,"CCN1CCN(c2nc(-c3ccc(C(O)(c4nccs4)c4nccs4)cc3)cc3ccccc23)CC1 (as salt: hydrochloride) [Example 411, 1-(4-ethylpiperazin-1-yl)-3-{4-[bis(1,3-thiazol-2-yl)hydroxymethyl]phenyl}isoquinoline]"
9,98 to 102 °C,"CCN1CCN(c2nc(-c3ccc(OC)c(CCCO)c3)cc3ccsc23)CC1 (as salt: oxalate) [Example 261, 5-[3-(3-hydroxypropyl)-4-methoxyphenyl]-7-(4-ethylpiperazin-1-yl)thieno[2,3-c]pyridine Oxalate]"
10,220 °C (dec.),"CCN1CCN(c2nc(/C=C/c3ccccn3)cc3ccccc23)CC1 (as salt: hydrochloride) [Example 209, 1-(1-Ethylpiperazin-4-Yl)-3-[Trans-2-(2-Pyridyl)Ethenyl]Isoquinoline Trihydrochloride]"
11,208 to 210 °C,"CCN1CCN(c2nc(-c3ccc(N4CCC(O)CC4)nc3)cc3ccsc23)CC1 (as salt: hydrochloride) [Example 265, 5-[2-(4-hydroxypiperidin-1-yl)pyridin-5-yl]-7-(4-ethylpiperazin-1-yl)thieno[2,3-c]pyridine Hydrochloride]"
12,112 to 114 °C,"CCCC(O)c1ccc(-c2cc3ccsc3c(N3CCN(CC)CC3)n2)cc1 (stereo not shown) (as salt: hydrochloride) [Example 446, 7-(4-ethylpiperazin-1-yl)-5-[4-(1-hydroxybutyl)phenyl]thieno[2,3-c]pyridine dihydrochloride]"
13,233 °C (dec.),"CCN1CCN(c2nc(-c3ccc4c(c3)CCC4=O)cc3ccccc23)CC1 (as salt: hydrochloride) [Example 414, 1-(4-ethylpiperazin-1-yl)-3-(1-indanon-5-yl)isoquinoline]"
14,122 to 133.5 °C,"CCN1CCN(c2nc(-c3ccc(CCC(C)(C)O)cc3)cc3ccsc23)CC1 (as salt: hydrochloride) [Example 439, 7-(4-ethylpiperazin-1-yl)-5-[4-(3-hydroxy-3-methylbutyl)phenyl]thieno[2,3-c]pyridine dihydrochloride]"
15,142 to 143 °C,"CCNC(=O)c1ccc(-c2cc3ccsc3c(N3CCN(CC)CC3)n2)cc1 (as salt: hydrochloride) [Example 448, 7-(4-ethylpiperazin-1-yl)-5-[4-(N-ethylcarbamoyl)phenyl]thieno[2,3-c]pyridine dihydrochloride]"
16,172 to 173 °C (dec.),"CCN1CCN(c2nc(-c3cc(OC)ccn3)cc3ccccc23)CC1 (as salt: hydrochloride) [Example 335, 1-(4-ethylpiperazin-1-yl)-3-(4-methoxypyridin-2-yl)isoquinoline dihydrochloride]"
